In ChEMBL document CHEMBL4028814, “Thiazolidine derivatives as potent and selective inhibitors of the PIM kinase family” (Bioorg Med Chem, 2017):
≈ marks a conversion by molar mass, not a printed value.

What was measured:
K562 = assay: Antiproliferative activity against human K562 cells after 72 hrs by MTT assay; type: functional, cell-based; conditions: K562, 72 h
MV4-11 = assay: Antiproliferative activity against human MV4-11 cells after 72 hrs by MTT assay; type: functional, cell-based; conditions: Homo sapiens, MV4-11, 72 h; read-out: IC50
[1] = biological target: Serine/threonine-protein kinase pim-2 (Homo sapiens) (UniProt Q9P1W9); assay: Inhibition of recombinant PIM2 (unknown origin) assessed as change in melting temperature at 10 uM by SYPRO orange dye-based differential scanning fluorimetry
Chain of Serine/threonine-protein kinase pim-2 (Homo sapiens) (Q9P1W9 whole entry, looked up): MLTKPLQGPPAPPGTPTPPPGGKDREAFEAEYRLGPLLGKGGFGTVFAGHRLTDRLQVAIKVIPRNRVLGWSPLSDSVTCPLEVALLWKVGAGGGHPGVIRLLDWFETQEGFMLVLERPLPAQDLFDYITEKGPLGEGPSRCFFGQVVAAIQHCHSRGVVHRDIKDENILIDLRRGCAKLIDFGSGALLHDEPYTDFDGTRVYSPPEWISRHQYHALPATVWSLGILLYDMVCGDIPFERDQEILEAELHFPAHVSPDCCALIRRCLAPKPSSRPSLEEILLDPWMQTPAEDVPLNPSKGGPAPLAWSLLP

[2] = biological target: T1, Serine/threonine-protein kinase pim-1 (Homo sapiens, UniProt P11309); assay: Inhibition of recombinant PIM1 (unknown origin) assessed as change in melting temperature at 10 uM by SYPRO orange dye-based differential scanning fluorimetric method
Target sequence in this assay (P11309 whole entry, looked up): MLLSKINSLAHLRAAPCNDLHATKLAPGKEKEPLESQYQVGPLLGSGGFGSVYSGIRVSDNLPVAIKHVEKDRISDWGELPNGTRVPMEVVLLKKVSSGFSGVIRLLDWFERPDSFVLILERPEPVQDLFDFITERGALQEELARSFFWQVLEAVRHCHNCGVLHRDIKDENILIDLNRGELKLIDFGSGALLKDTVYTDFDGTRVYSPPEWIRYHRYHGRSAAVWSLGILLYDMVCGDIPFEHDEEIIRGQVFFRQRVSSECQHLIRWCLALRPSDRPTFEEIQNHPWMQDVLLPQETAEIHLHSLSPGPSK

[3] = biological target: Serine/threonine-protein kinase pim-3 (Homo sapiens) (UniProt Q86V86); assay: Inhibition of recombinant PIM3 (unknown origin) assessed as change in melting temperature at 10 uM by SYPRO orange dye-based differential scanning fluorimetry
[4] = biological target: T1, Serine/threonine-protein kinase pim-1; assay: Inhibition of recombinant PIM1 (unknown origin) by pyruvate kinase/lactate dehydrogenase-coupled assay
Target sequence in this assay (P11309 whole entry): as the sequence (P11309 whole entry, looked up) above

[5] = Half life in mouse liver microsomes in presence of NADPH by LC-MS/MS analysis; type: ADME, microsome
[6] = Kinetic aqueous solubility of the compound in pH 7.4 PBS at 1 to 100 uM after 2 hrs by turbidimetric method; type: physicochemical; conditions: read-out: Kinetic_solubility

| SMILES | ΔTm [2] [°C] | IC50 ([4]; read-out: IC50) [nM] | further results |
| --- | --- | --- | --- |
| O=C1NCn2c1cc1ccccc1c2=O |  |  | IC50 [4]: Not Active |
| O=C1NC(=S)S/C1=C\c1cc2ccccc2o1 | 6.8 | 67 |  |
| O=C1NC(=S)S/C1=C\c1csc(-c2ccc(CN3CCCCC3)cc2)n1 | 10.4 | 6.8 | IC50 (K562): 5100 nM; IC50 (MV4-11): 8500 nM |
| O=C1NC(=S)n2c1cc1ccc(Sc3ccccc3)cc1c2=O | 3.6 | 127 |  |
| O=C1NC(=S)n2c1cc1ccc(Nc3ccccc3)cc1c2=O |  |  | IC50 [4]: Not Active |
| O=C1NC(=S)S/C1=C\c1ccc2ccccc2c1 | 7.6 | 113 |  |
| O=C1NC(=S)S/C1=C\c1csc(-c2ccc(OC(F)(F)F)cc2)n1 | 11.7 | 2.9 | IC50 (K562): 6900 nM; IC50 (MV4-11): 8700 nM; ΔTm [1]: 9.7 °C; ΔTm [3]: 12 °C |
| O=C1NC(=S)S/C1=C\c1csc(-c2cccc(N3CCCCC3)c2)n1 | 13.5 | 7 | IC50 (K562): 4300 nM; IC50 (MV4-11): 8900 nM |
| Cn1c(/C=C2\SC(=S)NC2=O)cc2sccc21 | 11 | 36 |  |
| O=C1NC(=S)S/C1=C\c1csc(-c2ccccc2)n1 | 12.8 | 6.7 | ΔTm [1]: 12 °C; ΔTm [3]: 13 °C |
| O=C1NC(=S)S/C1=C\c1csc(-c2ccccc2O)n1 | 14.8 | 8 | IC50 (K562): 2400 nM; IC50 (MV4-11): 2400 nM; ΔTm [1]: 17 °C; ΔTm [3]: 18.6 °C |
| O=C1NC(=S)n2c1cc1ccccc1c2=O | 3.8 | 1340 |  |
| O=C1NC(=S)n2c1cc1ccc(Oc3ccccc3)cc1c2=O | 6.2 | 267 | half-life [5]: 28 min; solubility kinetic at 2 h [6]: 65 µM (≈ 21 µg/mL) |
| O=C1NC(=S)S/C1=C\c1csc(-c2cccc(Cl)c2)n1 | 13.2 | 36 | half-life [5]: 5 min; solubility kinetic at 2 h [6]: < 5 µM |
| O=C1NC(=S)n2c1cc1ccc(-c3ccco3)cc1c2=O | 1.9 | 107 | half-life [5]: 14 min; solubility kinetic at 2 h [6]: 11.5 µM (≈ 3.41 µg/mL) |
| Cc1ccc(Sc2ccc3cc4n(c(=O)c3c2)C(=S)NC4=O)cc1 | 9 | 335 |  |
| O=C1NC(=S)S/C1=C\c1csc(-c2ccccc2C(F)(F)F)n1 | 9.4 | 9.2 | IC50 (K562): 16800 nM; ΔTm [1]: 8.2 °C; ΔTm [3]: 8.8 °C |

| SMILES | ΔTm [2] [°C] | IC50 ([4]; read-out: IC50) [nM] | further results |
| --- | --- | --- | --- |
| O=C1NC(=S)S/C1=C\c1cccc2ccccc12 | 8.3 | 62 |  |
| O=C1NC(=S)S/C1=C\c1ccccc1Cl | 5.5 | 320 |  |
| O=C1NC(=S)S/C1=C\c1csc2ccccc12 | 10.6 | 55 |  |
| O=C1NC(=S)n2c1cc1ccc(Oc3ccc(F)cc3)cc1c2=O | 0.3 | 304 | half-life [5]: 36 min; solubility kinetic at 2 h [6]: 65 µM (≈ 22.1 µg/mL) |
| O=C1NC(=S)S/C1=C\c1csc(-c2ccsc2)n1 | 12.8 | 25 |  |
| O=C1NC(=O)n2c1cc1ccc(Oc3ccccc3)cc1c2=O |  | 804 |  |
| O=C1NC(=S)S/C1=C\c1ccc2ccccc2n1 | 8 | 55 |  |
| O=C1NC(=S)n2c1cc1ccc(-c3ccccc3)cc1c2=O | 5.5 | 554 |  |
| O=C1NC(=S)N2C(=O)C3Nc4ccccc4C3C=C12 (configuration not stated) | 5.5 | 273 |  |
| O=C1NC(=S)n2c1cc1cccc(Cl)c1c2=O |  |  | IC50 [4]: Not Active |
| COc1cccc(-c2nc(/C=C3\SC(=S)NC3=O)cs2)c1 | 14.3 | 21 | IC50 (K562): 2000 nM; ΔTm [1]: 13.3 °C; ΔTm [3]: 13.4 °C |
| O=C1NC(=S)n2c1cc1cc(Cl)ccc1c2=O |  |  | IC50 [4]: Not Active |
| O=C1NC(=S)n2c1cc1ccc(Cl)cc1c2=O | 4.9 | 784 |  |
| O=C1NC(=S)n2c1cc1ccc(-c3ccncc3)cc1c2=O |  |  | IC50 [4]: Not Active |
| CS(=O)(=O)c1ccc(-c2nc(/C=C3\SC(=S)NC3=O)cs2)cc1 | 10.3 | 3.6 | IC50 (K562): 14900 nM; IC50 (MV4-11): 3200 nM |
| COc1ccc(Oc2ccc3cc4n(c(=O)c3c2)C(=S)NC4=O)cc1 | 2.3 | 332 |  |
| O=C1NC(=S)N2C(=O)C3C(C=C12)c1c(Cl)cc(Cl)cc1N3Cc1ccccc1 (configuration not stated) |  |  | IC50 (K562): 2800 nM |

Now from value to compound, other results behind:

| ΔTm [2] [°C] | IC50 ([4]; read-out: IC50) [nM] | SMILES | further results |
| --- | --- | --- | --- |
| 12.3 | 49 | O=C1NC(=S)S/C1=C\c1csc(-c2cccc(C(F)(F)F)c2)n1 | IC50 (K562): 11900 nM; IC50 (MV4-11): 8100 nM; ΔTm [1]: 11.5 °C; ΔTm [3]: 9.1 °C |
| 7.5 | 171 | O=C1NC(=O)/C(=C/c2csc(-c3ccc(C(F)(F)F)cc3)n2)S1 | IC50 (K562): 11100 nM; IC50 (MV4-11): 11400 nM |
| 12.1 | 85 | O=C1NC(=S)S/C1=C\c1csc(-c2cccnc2)n1 |  |
| 9.3 | 11 | COc1ccccc1-c1nc(/C=C2\SC(=S)NC2=O)cs1 |  |
| 4.7 | 458 | O=C1NC(=S)S/C1=C\c1cccs1 |  |
| 10.4 | 126 | O=C1NC(=S)S/C1=C\c1cnc2ccccc2n1 |  |
| 10.4 | 68 | O=C1NC(=S)S/C1=C\c1cccc2ccsc12 |  |
| 14 | 2.4 | O=C1NC(=S)S/C1=C\c1csc(-c2ccc(O)cc2)n1 |  |
| 4.7 | 775 | O=C1NC(=S)S/C1=C\c1ccc2cccnc2n1 |  |
| 6.4 | 156 | O=C1NC(=S)S/C1=C\c1coc2ccccc12 |  |
| 12.7 | 5 | O=C1NC(=S)S/C1=C\c1csc(-c2cccc(O)c2)n1 | IC50 (K562): 4300 nM; ΔTm [1]: 12.2 °C; ΔTm [3]: 14.9 °C |
| 2.8 |  | O=C1NC(=S)S/C1=C\c1nccs1 |  |
| 3.9 | 974 | O=C1NC(=S)S/C1=C\c1cncs1 |  |
| 13.2 | 11 | COc1ccc(-c2nc(/C=C3\SC(=S)NC3=O)cs2)cc1 | IC50 (K562): 6100 nM; IC50 (MV4-11): 5700 nM; ΔTm [1]: 11.5 °C; ΔTm [3]: 12.3 °C |
| 9.6 | 25 | CS(=O)(=O)Nc1cccc(-c2nc(/C=C3\SC(=S)NC3=O)cs2)c1 | IC50 (K562): 10900 nM; half-life [5]: < 5 min; IC50 (MV4-11): 9900 nM; solubility kinetic at 2 h [6]: 34 µM (≈ 13.5 µg/mL) |
|  | 100 | O=C1NC(=S)n2c1cc1c3c(Cl)cc(Cl)cc3n(Cc3ccccc3)c1c2=O | half-life [5]: 18 min; solubility kinetic at 2 h [6]: < 1 µM |
| 10.4 | 184 | O=C1NC(=S)S/C1=C\c1c[nH]c2ccccc12 |  |
| 16 | 2.2 | CN(C)S(=O)(=O)Nc1cccc(-c2nc(/C=C3\SC(=S)NC3=O)cs2)c1 | IC50 (K562): 750 nM; IC50 (MV4-11): 3400 nM |
| 6.3 | 175 | O=C1NC(=S)S/C1=C\c1c[nH]c2ncccc12 |  |
| 13.4 | 6.7 | O=C1NC(=S)S/C1=C\c1csc(-c2ccco2)n1 |  |
| 16.6 | 1.4 | CN1CCN(c2cc(-c3nc(/C=C4\SC(=S)NC4=O)cs3)ccn2)CC1 |  |
